According to publication PMC5725665, “Discovery of a Highly Selective Cell‐Active Inhibitor of the Histone Lysine Demethylases KDM2/7” (Angewandte Chemie (International Ed. in English), 2017):

Legend:
Assay in all cases: biochemical
[1] = molecular target: JARID1A (KDM5A) (Homo sapiens, UniProt P29375); parameters: AlphaScreen histone demethylase activity assay
Source text: (§1) A base‐mediated 5‐endo‐trig cyclization of a C‐2‐substituted aromatic imine afforded the racemic indoline core with two adjacent stereocenters. Subsequent acylation of the indoline ring system conferred stability towards oxidation and provided a handle for modulating polarity. Finally, metal‐catalysed cross‐coupling of the aryl bromide provided access to a variety of linkers between the indoline core and pyrrolidine capping group. In total, 45 racemic compounds were synthesized, and IC50 values for inhibition of KDM2A were determined using two orthogonal enzyme activity assays: AlphaScreen25 and RapidFire MS26 (see Section S3.1 in the Supporting Information for complete inhibition data). Key structure–activity relationships are summarized below (Scheme 1 B, compounds 2–12). […] In immunofluorescence assays using HeLa cells ectopically expressing catalytically active KDM2A, a dose‐dependent increase in H3K36me2 staining was observed upon incubation with (S,S)‐6, reflecting augmented cellular H3K36me2 levels (Figure 2 A and Section S3.3). […] To profile its selectivity, (S,S)‐6 was tested for inhibitory activity against a panel of KDMs, methyllysine binding motifs, and epigenetic enzymes.

[2] = molecular target: T1, JMJD2A (KDM4A) (Homo sapiens, UniProt O75164); parameters: AlphaScreen histone demethylase activity assay; conditions: read-out: KDM4A % Inhib. (18.75 uM)
T1 sequence (O75164 1-1064): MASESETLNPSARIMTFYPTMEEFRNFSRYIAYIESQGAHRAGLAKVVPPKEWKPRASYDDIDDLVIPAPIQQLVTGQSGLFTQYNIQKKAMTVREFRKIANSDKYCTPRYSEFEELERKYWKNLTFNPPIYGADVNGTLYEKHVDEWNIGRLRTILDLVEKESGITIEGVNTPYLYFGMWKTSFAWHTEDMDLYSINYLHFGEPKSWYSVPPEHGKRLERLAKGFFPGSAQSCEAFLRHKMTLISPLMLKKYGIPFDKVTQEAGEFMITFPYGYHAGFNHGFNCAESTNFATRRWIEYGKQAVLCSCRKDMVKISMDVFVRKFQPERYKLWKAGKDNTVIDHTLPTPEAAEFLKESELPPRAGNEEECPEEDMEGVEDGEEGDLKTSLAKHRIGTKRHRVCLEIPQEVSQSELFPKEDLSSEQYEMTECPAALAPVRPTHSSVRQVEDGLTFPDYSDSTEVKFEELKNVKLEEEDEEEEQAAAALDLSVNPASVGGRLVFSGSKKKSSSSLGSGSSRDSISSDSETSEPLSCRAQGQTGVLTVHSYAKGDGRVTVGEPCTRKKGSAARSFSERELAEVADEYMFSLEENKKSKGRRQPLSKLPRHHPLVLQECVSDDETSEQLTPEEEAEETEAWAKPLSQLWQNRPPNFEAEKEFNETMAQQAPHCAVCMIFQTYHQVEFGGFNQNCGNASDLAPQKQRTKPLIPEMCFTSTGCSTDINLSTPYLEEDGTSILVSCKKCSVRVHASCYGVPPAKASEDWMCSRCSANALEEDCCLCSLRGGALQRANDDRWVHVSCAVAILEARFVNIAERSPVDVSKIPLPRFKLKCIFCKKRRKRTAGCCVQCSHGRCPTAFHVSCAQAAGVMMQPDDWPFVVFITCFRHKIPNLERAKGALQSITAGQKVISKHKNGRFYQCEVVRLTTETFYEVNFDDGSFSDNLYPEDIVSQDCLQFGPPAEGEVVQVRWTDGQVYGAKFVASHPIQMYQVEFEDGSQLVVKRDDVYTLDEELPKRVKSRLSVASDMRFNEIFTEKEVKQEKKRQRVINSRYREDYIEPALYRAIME

[3] = molecular target: T1, JMJD2A (KDM4A); parameters: AlphaScreen histone demethylase activity assay; conditions: for IC50: read-out: KDM4A pIC50 (converted); for KDM4A pIC50: inhibitor
Source text: as §1

[4] = molecular target: T2, KDM2A (Homo sapiens, UniProt Q9Y2K7); parameters: RapidFire MS histone peptide demethylation assay; conditions: for KDM2A RapidFire pIC50: inhibitor
T2 construct: isolated enzyme
T2 sequence (Q9Y2K7 1-517 limits assumed): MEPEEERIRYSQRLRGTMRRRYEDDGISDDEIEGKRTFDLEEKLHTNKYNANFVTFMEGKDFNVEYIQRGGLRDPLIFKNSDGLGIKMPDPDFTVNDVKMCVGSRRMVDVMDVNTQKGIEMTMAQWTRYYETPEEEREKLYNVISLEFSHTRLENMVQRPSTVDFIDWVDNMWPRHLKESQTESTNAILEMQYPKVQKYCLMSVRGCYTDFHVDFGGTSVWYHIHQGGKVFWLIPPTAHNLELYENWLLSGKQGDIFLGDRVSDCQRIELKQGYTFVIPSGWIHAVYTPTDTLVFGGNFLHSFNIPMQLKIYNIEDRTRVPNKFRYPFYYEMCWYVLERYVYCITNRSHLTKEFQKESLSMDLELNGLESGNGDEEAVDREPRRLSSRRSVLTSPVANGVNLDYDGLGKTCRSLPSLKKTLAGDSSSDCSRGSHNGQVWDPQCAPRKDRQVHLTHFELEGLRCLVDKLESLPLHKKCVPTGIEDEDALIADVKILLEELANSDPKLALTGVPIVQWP
Experimental: [formula] Scheme 1 A) General synthetic strategy for racemic synthesis of KDM2A inhibitors. Reagents and conditions: i) Zn powder (10 equiv), NH4Cl (15 equiv), 5:1 acetone/H2O or H2, Pd/C (10 % w/w), EtOAc; ii) ArCHO (1.3 equiv), MgSO4 (5 equiv), PhMe or ArCHO (1.3 equiv), pyrrolidine (0.1 equiv), 3 Å sieves, CH2Cl2; iii) KO^tBu (1.1 equiv), PhMe, 0 °C; iv) R^3COCl (2–5 equiv), pyridine (2–5 equiv), CH2Cl2; v) metal‐catalysed cross‐coupling. B) Key structure–activity relationships. IC50 values were determined by RapidFire MS and confirmed by AlphaScreen. All compounds are racemic. C) Catalytic enantioselective synthesis. Reagents and conditions: i) CsOH⋅H2O (2.0 equiv), catalyst 14/16 (10 mol %), PhMe, −30 °C. Catalyst 14: 89 %, d.r. 10:1, e.r. 88:12; catalyst 16: 84 %, d.r. 7:1, e.r. 17:83; ii) CH3COCl (2.0 equiv), pyridine (2.0 equiv), CH2Cl2; iii) H2, Pd/C (10 % w/w), 88 % (2 steps); iv) K2CO3 (5 equiv), Br(CH2)7Br (4 equiv), acetone, reflux, 38 %; v) K2CO3 (5 equiv) pyrrolidine (4 equiv), CH3CN, 65 %; vi) PhN(SO2CF3)2 (1.1 equiv), DIPEA (2.0 equiv), CH2Cl2, 0 °C, 85 %; vii) 7‐pyrrolidine‐hept‐1‐yne (1.5 equiv), PdCl2(PPh3)2 (5 mol %), CuI (5 mol %), HN(^iPr)2, 75 °C, 79 %; viii) H2, Pd/C (10 % w/w), MeOH, 74 %. DIPEA=(^iPr)2NEt. A base‐mediated 5‐endo‐trig cyclization of a C‐2‐substituted aromatic imine afforded the racemic indoline core with two adjacent stereocenters. Subsequent acylation of the indoline ring system conferred stability towards oxidation and provided a handle for modulating polarity. Finally, metal‐catalysed cross‐coupling of the aryl bromide provided access to a variety of linkers between the indoline core and pyrrolidine capping group. In total, 45 racemic compounds were synthesized, and IC50 values for inhibition of KDM2A were determined using two orthogonal enzyme activity assays: AlphaScreen25 and RapidFire MS26 (see Section S3.1 in the Supporting Information for complete inhibition data). Key structure–activity relationships are summarized below (Scheme 1 B, compounds 2–12).

JARID1A (KDM5A), sequence (P29375 whole entry): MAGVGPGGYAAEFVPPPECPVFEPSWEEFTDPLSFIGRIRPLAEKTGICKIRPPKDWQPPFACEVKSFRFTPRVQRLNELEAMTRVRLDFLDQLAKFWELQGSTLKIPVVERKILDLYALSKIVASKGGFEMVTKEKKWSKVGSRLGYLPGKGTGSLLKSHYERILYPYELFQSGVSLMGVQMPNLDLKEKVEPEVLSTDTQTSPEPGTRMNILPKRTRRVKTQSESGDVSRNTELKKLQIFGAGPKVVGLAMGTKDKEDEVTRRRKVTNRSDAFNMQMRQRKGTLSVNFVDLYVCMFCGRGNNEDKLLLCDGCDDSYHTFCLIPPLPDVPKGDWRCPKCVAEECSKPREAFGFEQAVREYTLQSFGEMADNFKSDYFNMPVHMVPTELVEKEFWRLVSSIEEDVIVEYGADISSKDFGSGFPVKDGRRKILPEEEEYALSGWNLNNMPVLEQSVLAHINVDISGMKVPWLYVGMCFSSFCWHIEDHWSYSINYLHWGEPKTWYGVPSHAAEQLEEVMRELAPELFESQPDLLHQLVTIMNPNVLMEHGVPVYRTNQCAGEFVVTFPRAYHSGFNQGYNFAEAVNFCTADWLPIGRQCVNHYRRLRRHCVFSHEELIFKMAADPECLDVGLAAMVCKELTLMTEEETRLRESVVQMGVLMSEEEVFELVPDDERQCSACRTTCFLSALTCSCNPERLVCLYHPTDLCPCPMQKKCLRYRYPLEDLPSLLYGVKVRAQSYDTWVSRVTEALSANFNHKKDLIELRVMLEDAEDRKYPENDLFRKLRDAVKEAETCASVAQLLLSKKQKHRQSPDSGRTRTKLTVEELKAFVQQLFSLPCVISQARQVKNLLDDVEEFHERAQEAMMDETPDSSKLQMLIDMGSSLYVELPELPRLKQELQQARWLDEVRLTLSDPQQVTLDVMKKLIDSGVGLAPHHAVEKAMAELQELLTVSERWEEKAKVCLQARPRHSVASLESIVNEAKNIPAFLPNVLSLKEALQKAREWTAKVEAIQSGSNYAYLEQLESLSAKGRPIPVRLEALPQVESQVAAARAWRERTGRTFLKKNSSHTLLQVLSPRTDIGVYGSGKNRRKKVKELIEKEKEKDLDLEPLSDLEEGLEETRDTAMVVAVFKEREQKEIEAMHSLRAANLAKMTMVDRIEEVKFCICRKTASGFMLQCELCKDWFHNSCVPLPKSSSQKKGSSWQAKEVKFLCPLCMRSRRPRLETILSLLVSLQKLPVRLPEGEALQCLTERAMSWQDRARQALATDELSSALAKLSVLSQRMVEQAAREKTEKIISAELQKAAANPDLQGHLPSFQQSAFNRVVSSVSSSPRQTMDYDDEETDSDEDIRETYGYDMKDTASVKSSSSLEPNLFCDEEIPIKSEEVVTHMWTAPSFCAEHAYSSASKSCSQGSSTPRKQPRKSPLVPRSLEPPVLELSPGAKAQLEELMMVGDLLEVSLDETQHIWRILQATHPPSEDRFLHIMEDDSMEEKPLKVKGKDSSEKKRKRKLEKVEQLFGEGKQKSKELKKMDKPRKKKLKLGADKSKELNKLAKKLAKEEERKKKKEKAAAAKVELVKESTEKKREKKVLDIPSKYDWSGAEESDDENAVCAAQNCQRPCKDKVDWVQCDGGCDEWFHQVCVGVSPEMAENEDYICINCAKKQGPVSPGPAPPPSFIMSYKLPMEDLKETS

Row | SMILES | inhibition at 50 µM [1] [%] | inhibition at 18.75 µM [2] [%] | also measured
1 | CC(=O)N1c2ccccc2[C@](C#N)(c2ccccc2)[C@H]1c1cncc(C#CCCCCCN2CCCC2)c1 (racemic) [compound 4, 4] | 39 | 10.2 | –
2 | CC(=O)N1c2ccccc2C(C#N)(c2ccccc2)C1c1cncc(C#CCCCCCN2CCCC2)c1 (stereo not shown) [compound 130, 130] | 30.9 | -1.3 | –
3 | CC(=O)N1c2ccccc2[C@](C#N)(c2ccccc2)[C@H]1c1cncc(OCCCCCCCN2CCCC2)c1 (racemic) [compound 3, 3] | 24 | -5.4 | –
4 | CC(=O)N1c2ccccc2[C@@](C#N)(c2ccccc2)[C@H]1c1cncc(OCCCCCCCN2CCCC2)c1 (racemic) [compound 145, (2RS,3SR)-1-Acetyl-3-phenyl-2-(5-((7-(pyrrolidin-1-yl)heptyl)oxy)pyridin-3-yl)indoline-3-carbonitrile] | 36.7 | -9.59 | IC50 [3]: > 20 µM; IC50 ([1]; read-out: KDM5A pIC50 (converted)): > 50.1 µM; IC50 ([4]; read-out: KDM2A RapidFire pIC50 (converted)): 1.01 µM
5 | CC(=O)N1c2ccccc2[C@@](C#N)(c2ccccc2)[C@H]1c1cccc(/C=C/CCCCCN2CCCC2)c1 (relative stereo) [compound 126, 126] | – | 27.8 | KDM4A pIC50 [3]: < 4.7; KDM2A RapidFire pIC50 [4]: 5.983
6 | CC(=O)N1c2ccccc2[C@](C#N)(c2ccccc2)[C@H]1c1cncc(OCCOCCOCCN2CCCC2)c1 (racemic) [compound 148, (2RS,3RS)-1-Acetyl-3-phenyl-2-(5-(2-(2-(2-(pyrrolidin-1-yl)ethoxy)ethoxy)ethoxy)pyridin-3-yl)indoline-3-carbonitrile] | – | -5.9 | IC50 [3]: > 20 µM
7 | CCOC(=O)C1(C#N)c2ccccc2N(C(C)=O)C1c1cncc(C=CCCCCCN2CCCC2)c1 (stereo not shown) [compound 124, 124] | 20 | -12.7 | –
8 | CC(=O)N1c2ccccc2[C@](C#N)(c2ccccc2)[C@H]1c1ccc(C#CCCCCCN2CCCC2)o1 (relative stereo) [compound 132, 132] | 49.1 | 18.3 | KDM4A pIC50 [3]: < 4.7; KDM5A pIC50 ([1]; inhibitor): < 4.3; KDM2A RapidFire pIC50 [4]: 5.990

Now from value to compound, other results behind:

Row | inhibition at 50 µM [1] [%] | inhibition at 18.75 µM [2] [%] | SMILES | also measured
9 | 47.5 | 8.5 | CC(=O)N1c2ccccc2[C@](C#N)(c2ccccc2)[C@H]1c1ccc(CCCCCCCN2CCCC2)o1 (racemic) [compound 7, 7] | –
10 | 23 | 21.8 | CC(=O)N1c2ccccc2C(C#N)(c2ccccc2)C1c1cc(CCCCCCCN2CCCC2)co1 (stereo not shown) [compound 8, 8] | –
11 | 40 | 7.8 | CC(=O)N1c2ccccc2[C@](C#N)(c2ccccc2)[C@H]1c1cncc(CCCCCCCN2CCCC2)c1 [(R,R)-6] | –
12 | 25.5 | -1.1 | CC(=O)N1c2ccccc2[C@](C#N)(c2ccccc2)[C@H]1c1cncc(CCCCCCCN2CCCC2)c1 (racemic) [compound 6, 6] | –
